Read-outs that look alike come from different tables or passages of the source.
Columns and labels:
[1] = test system: focal adhesion kinase (FAK); details: wound-edge tissue, 1.25 micromole/wound, 30 minutes after wounding
Method: Human microvascular endothelial cells (HMEC-1) were treated with H2O2 for indicated dose and duration. Phosphorylation of FAK was detected using Western blot and phosphorylation site-specific antibodies against FAK. Native FAK or β-actin was blotted to show equal loading. […] B. Kinetics of site-specific activation phophorylation of FAK in HMEC cells following H2O2 (0.1 mM) treatment. […] Paired excisional wounds (FIG. 2) were either treated with placebo saline or H2O2 (1.25 micromole/wound). Wound-edge tissue was collected 30 min after wounding. FAK phosphorylation in wound edge tissue was determined using Western blot. Data from three animals (#1-#3) are shown.
In FIG. 5C, paired excisional wounds were either treated with placebo saline or H2O2 (1.25 micromole/wound). Wound-edge tissue was collected 30 minutes after wounding. FAK phosphorylation in wound edge tissue was determined using Western blot. Data from three animals (#1-#3) are shown.

keratin 14 = details: p47phox knockout mice; 1.25 micromoles/wound, days 0-4; day 18 post-wounding, after closure
Method: Two excisional wounds (FIG. 2) were-laced on the dorsal skin of 8 wk old C57BL/6, MCP-1 or p47phox KO mice. Each of the two wounds was treated with either saline or H2O2 (1.25 micromoles/wound; days 0-4). […] C. […] D. Keratin 14 (green fluorescence) expression in skin of p47phox KO mice harvested from wound sites after closure on day 18 post-wounding.
Briefly, two excisional wounds were placed on the dorsal skin of eight-week-old C57BL/6, MCP-1 or p47^phox knockout mice. Each of the two wounds was treated with either saline or H2O2 (1.25 micromoles/wound; days 0-4).

CD31 = details: 1.25 micromole/wound, days 0-4; day 8 post-wounding; vs control
Method: (§1) FIG. 4. […] Paired excisional wounds (FIG. 2) were either treated with placebo saline or H2O2 (1.25 micromole/wound, days0-4, once daily). Wound-edge tissue was collected at indicated times after wounding. A. Ribonuclease protection assay (RPA) showing kinetics of angiogenesis-related mRNA expression in a placebo-treated wound. […] C. Blood flow imaging of wounds was performed non-invasively using a Laser Doppler blood flow imaging device. Images reflecting the blood flow (right panel) and a digital photo (region of interest; left panel) from post-heal tissue are shown. Data i.e., mean±SD of the blood flow is presented (bar graph). The mean represents the arithmetic mean of all valid blood flow values for pixels within the region of interest.
(§2) Paired excisional wounds were either treated with placebo saline or H2O2 (1.25 micromole/wound, days 0-4, once daily). Wound-edge tissue was collected at indicated times after wounding.

Flt-1 mRNA = details: 1.25 micromole/wound, once daily, days 0-4; wound-edge tissue
Method: as §1, §2

VEGF mRNA = details: 1.25 micromole/wound, once daily, days 0-4; wound-edge tissue
Method: as §1, §2

wound blood flow = details: 1.25 micromole/wound, days 0-4, once daily; post-heal tissue; vs placebo saline
Method: as §1, §2
Images reflecting the blood flow (right panel) and a digital photo (region of interest; left panel) from post-heal tissue are shown. […] The mean represents the arithmetic mean of all valid blood flow values for pixels within the region of interest.

[2] = test system: focal adhesion kinase (FAK); details: HMEC-1 microvascular endothelial cells; various doses, 0.1 mM for kinetics
Method: Human microvascular endothelial cells (HMEC-1) were treated with H2O2 for indicated dose and duration. Phosphorylation of FAK was detected using Western blot and phosphorylation site-specific antibodies against FAK. Native FAK or β-actin was blotted to show equal loading. A. Effect of various dose of H2O2 treatment on phosphorylation (Ty 925) state of FAK. B. Kinetics of site-specific activation phophorylation of FAK in HMEC cells following H2O2 (0.1 mM) treatment.
Human microvascular endothelial cells (HMEC-1) were treated with H2O2 for indicated dose and duration. Phosphorylation of FAK was detected using Western blot and phosphorylation site-specific antibodies against FAK. Native FAK or β-actin was blotted to show equal loading.

[3] = test system: 8×16-mm full-thickness excisional wounds; details: for wound closure: p<0.05
Method: FIG. 3. […] Two 8×16 mm full-thickness excisional wounds (inset) were placed on the dorsal skin of C57BL/6 male mice (8 wk old). […] For determination of surface microflora, wounds (treated with either 1.25 micromole H2O2/wound, open bar, or saline, closed bar) were swabbed (24-48 h post wounding) for 20 sec with an alginate-tipped applicator. Quantitative assessment of surface bacterial load was performed. For deep tissue wound microflora, 48 h after wounding eschar tissue was removed, wound bed tissue underneath eschar was sampled and quantitative assessment of bacterial load was performed. Values shown represent mean±SD of CFU of four observations. C.
Briefly, two 8×16-mm full-thickness excisional wounds (FIG. 3, insets) were placed on the dorsal skin of C57BL/6 male mice (8 weeks old). Each of the two wounds was topically treated either with H2O2 or saline.

## OO [H2O2, hydrogen peroxide]
[1]
  phosphorylation of FAK: Induced Phosphorylation
Keratin 14
  keratin 14 expression: comparable to normal skin
CD31
  vascularization (CD31 stain): better vascularization
Flt-1 mRNA
  wound-induced Flt-1 mRNA expression: further augmented
VEGF mRNA
  wound-induced VEGF mRNA expression: further augmented
Wound blood flow
  blood flow: increased blood flow
[2]
  phosphorylation of FAK: Induced Phosphorylation
[3]; 62.5 micromoles/wound (0.025 ml of 7.5% solution), once on day 0
  tissue damage / survival: caused necrotic tissue damage and severe injury, leading to death of the mice
[3]; high dose 25 micromoles/wound (0.025 ml of 3% solution), once daily days 0-4, compared to low dose 1.25 micromoles/wound
  wound closure: adversely affected closure
[3]; low-dose 1.25 micromoles/wound (0.025 ml of 0.15% solution), topical, once daily, days 0-4, vs placebo saline side
  wound closure: facilitated closure moderately

Source: US20050281890A1 (priority 2004, published 2005)
